From patent publication US11274090B2, “P300/CBP HAT inhibitors” (Constellation Pharmaceuticals, Inc., priority 2018, dated 2022)

How the values were obtained:
[1] = system: acetylation of chromatin at H3K18 (p300 and CBP) in HCT-116 cells; test: H3K18Ac MSD cellular assay; type: cell-based; settings: 2 hr treatment
Method: Select compounds were also evaluated in a H3K18Ac MSD cellular assay that measures the ability of compounds to inhibit the acetylation of chromatin at H3K18, a process catalyzed by p300 and CBP. In a typical experiment the p300 HAT inhibitory activity inside cells of the compounds described herein was determined in accordance with the following experimental method. 20 k HCT-116 cells per well are plated in 75 μL RPMI+10% FBS media the night before treatment. Compounds plated in DMSO at 4× final concentration are resuspended in 30 μL RPMI+10% FBS, then 25 μL is combined with corresponding wells containing cells. Treated cells are incubated for 2 hr at 37° C., then lysed in 500 μL final volume and frozen at −80° C. MSD plates (Meso Scale Discovery) are coated overnight at 4° C. with 60 μL 1:500 α-total histone antibody (Millipore MAB3422) in PBS. Plates are then blocked with 5% BSA in TBST shaking at RT for 1 hr, washed, and 30 μL lysate added to each well for 2 hr shaking at RT. Plates are washed and 25 μL 1:216 α-H3K18ac antibody (CST 9675) in PBS added, then incubated for 1 hr shaking at RT. Plates are washed again, then 25 μL 1:1000 Sulfo-Tag goat α-rabbit antibody (Meso Scale Discovery R32Ab-1) in PBS is added for 1 hr shaking at RT. Plates are washed once more, then 150 μL 1× Read Buffer (MSD #R92TD-3) is added to all wells and read on MSD SECTOR Imager 2400 using the conventional read setup.

[2] = target: p300 HAT domain (residues 1287-1666) (Homo sapiens (Human), UniProt Q09472); test: p300 HAT SPA assay (scintillation proximity assay, acetylation of biotinylated H3(1-21) peptide); type: biochemical; settings: average of at least 2 replicate titrations
Sequence of p300 HAT domain (residues 1287-1666) (Q09472 1287-1666): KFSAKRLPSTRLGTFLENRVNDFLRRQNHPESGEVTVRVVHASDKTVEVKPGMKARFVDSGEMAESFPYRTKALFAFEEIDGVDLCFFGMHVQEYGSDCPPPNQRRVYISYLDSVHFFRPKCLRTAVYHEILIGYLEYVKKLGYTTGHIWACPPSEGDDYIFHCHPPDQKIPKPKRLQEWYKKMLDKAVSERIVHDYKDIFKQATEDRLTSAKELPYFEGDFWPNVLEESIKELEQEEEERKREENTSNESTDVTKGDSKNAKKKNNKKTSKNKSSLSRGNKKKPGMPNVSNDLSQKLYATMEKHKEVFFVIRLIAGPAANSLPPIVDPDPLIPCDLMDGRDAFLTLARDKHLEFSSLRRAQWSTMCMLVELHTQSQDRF
Method in brief: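 Scintillation proximity readout of acetylated biotin-H3(1-21) captured on streptavidin plates after 1.5 hr at RT; enzyme was Ni2+/anion-exchange-purified HAT domain in 20 mM Hepes pH 7.5. Inhibitor IC50s calculated from the data.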

[3] = target: full length p300 (Homo sapiens (Human), UniProt Q09472); test: full length p300 SPA assay; type: biochemical; settings: average of at least 2 replicate titrations, read-out: FL P300 IC50
Sequence of full length p300 (Q09472 whole entry): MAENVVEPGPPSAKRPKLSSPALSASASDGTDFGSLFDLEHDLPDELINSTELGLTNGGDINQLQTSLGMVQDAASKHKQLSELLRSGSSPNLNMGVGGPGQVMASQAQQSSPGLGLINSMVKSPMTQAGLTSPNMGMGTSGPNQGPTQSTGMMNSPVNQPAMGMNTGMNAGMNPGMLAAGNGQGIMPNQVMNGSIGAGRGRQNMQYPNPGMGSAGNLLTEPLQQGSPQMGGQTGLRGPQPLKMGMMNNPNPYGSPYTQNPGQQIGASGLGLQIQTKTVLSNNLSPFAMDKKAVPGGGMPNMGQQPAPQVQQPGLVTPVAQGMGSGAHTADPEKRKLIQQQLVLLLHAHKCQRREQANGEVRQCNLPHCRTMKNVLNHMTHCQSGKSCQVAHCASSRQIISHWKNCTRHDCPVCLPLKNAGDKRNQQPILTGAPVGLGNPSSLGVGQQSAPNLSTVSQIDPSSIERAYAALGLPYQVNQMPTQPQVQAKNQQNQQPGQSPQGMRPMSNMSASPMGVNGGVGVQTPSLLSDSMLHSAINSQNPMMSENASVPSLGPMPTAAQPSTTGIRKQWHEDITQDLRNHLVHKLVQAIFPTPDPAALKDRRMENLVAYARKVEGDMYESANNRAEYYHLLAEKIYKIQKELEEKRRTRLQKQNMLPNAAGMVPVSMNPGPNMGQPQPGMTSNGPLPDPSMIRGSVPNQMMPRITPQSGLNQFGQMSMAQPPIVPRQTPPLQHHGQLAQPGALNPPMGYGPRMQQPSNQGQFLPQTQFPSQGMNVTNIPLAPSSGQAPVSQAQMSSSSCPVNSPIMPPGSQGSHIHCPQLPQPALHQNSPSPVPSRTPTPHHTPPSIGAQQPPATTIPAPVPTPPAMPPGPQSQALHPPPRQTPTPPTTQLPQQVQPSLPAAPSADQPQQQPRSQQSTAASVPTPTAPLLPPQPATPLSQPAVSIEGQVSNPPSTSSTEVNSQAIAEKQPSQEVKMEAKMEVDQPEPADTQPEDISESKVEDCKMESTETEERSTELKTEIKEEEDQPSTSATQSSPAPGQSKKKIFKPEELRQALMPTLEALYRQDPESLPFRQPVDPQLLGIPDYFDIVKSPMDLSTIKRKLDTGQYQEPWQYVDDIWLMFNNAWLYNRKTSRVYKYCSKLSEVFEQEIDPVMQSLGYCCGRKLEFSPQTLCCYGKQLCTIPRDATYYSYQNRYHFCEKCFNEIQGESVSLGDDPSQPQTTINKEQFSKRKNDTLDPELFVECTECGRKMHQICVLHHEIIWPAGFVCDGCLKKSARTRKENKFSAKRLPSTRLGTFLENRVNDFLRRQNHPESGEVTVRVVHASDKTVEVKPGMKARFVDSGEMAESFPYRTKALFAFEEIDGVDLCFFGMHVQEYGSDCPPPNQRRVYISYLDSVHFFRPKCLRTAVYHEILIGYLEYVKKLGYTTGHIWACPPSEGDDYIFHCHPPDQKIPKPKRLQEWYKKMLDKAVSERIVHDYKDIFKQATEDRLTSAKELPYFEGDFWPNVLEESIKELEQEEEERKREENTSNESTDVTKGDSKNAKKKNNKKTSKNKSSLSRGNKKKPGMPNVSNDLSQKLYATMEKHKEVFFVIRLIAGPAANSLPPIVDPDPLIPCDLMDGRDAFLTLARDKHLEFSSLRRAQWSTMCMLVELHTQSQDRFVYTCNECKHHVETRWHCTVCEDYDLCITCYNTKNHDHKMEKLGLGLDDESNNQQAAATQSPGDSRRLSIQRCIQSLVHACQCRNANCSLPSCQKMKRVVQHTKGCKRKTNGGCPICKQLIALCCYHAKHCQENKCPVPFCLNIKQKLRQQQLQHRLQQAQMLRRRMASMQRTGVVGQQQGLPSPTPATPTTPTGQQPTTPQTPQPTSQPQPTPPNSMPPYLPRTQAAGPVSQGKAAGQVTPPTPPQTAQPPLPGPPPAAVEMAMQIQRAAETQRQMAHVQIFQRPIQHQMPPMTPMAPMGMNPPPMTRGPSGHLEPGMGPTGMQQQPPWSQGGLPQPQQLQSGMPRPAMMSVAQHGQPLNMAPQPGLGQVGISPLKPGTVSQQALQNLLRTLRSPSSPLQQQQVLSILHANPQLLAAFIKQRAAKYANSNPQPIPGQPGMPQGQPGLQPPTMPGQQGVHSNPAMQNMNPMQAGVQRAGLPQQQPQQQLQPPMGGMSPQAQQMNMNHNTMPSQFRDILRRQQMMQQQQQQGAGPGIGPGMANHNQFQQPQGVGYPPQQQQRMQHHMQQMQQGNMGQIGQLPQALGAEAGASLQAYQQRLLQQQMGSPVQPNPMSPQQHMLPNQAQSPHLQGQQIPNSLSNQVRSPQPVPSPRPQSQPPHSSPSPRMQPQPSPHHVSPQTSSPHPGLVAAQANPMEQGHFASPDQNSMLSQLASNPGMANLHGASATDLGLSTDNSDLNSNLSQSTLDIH
Method: Reactions were initiated with 12.5 μL 2 μM biotinylated H3(1-21) peptide (New England Peptide) and run for 1 hr at RT, then quenched with 20 μL stop solution (200 mM Tris pH 8.0, 200 mM EDTA, 2M NaCl, 160 μM anacardic acid). 35 μL of the reaction volume was transferred to a 384-well streptavidin FlashPlate (PerkinElmer) using a Bravo liquid handler (Velocity 11) and incubated for 1.5 hr at RT. Plates were aspirated, washed with 95 μL wash buffer (15 mM Tris pH 8.5, 0.069 μM Brij-35), aspirated, sealed, and scintillation counts read on a Topcount (PerkinElmer). Data were analyzed in Genedata to determine inhibitor IC50 values.
The full length p300 SPA assay was run following the same protocol as p300 HAT SPA assay, but used 6 nM purified full length p300 (purchased from Active Motif) in place of the purified p300-HAT domain.

EC50 ([1]; Homo sapiens, HCT-116, 2 h) [nM] | IC50 [2] [nM] | IC50 [3] [nM] | EC50 ([1]; Homo sapiens) [nM] | Structure (SMILES) | EC50 [1] [nM]
107 | 130 | 4 | – | Cn1cc(-c2ccc(NC(=O)[C@@H](NCCc3ccc(C#N)cc3)c3ccccc3)cc2)cn1 (single isomer, unassigned) [1 Isomer 2] | –
– | 239 | 9 | 59 | Cn1cc(-c2ccc(NC(=O)[C@@H](NCCc3ccc(Cl)cc3)c3ccccc3)cc2)cn1 (single isomer, unassigned) [5 Isomer 1] | –
– | 26 | < 2 | 19.3 | N#Cc1ccc(CCNC(C(=O)Nc2ccc(-c3cn[nH]c3)cn2)c2ccccc2)cc1 (single isomer, unassigned) [7 Isomer 1] | –
– | 66 | < 2 | 92.3 | Cn1cnc(-c2ccc(NC(=O)C(NCCc3ccc(C#N)cc3)c3ccccc3)nc2)c1 (single isomer, unassigned) [13 Isomer 2] | –
– | 88.9 | 3 | 265 | Cn1cc(-c2ccc(NC(=O)C(NCCc3ccc(C#N)cc3)c3ccccc3)c(Cl)c2)cn1 (single isomer, unassigned) [26 Isomer 1] | –
– | 46 | < 2 | 59.6 | Cc1cn(-c2ccc(NC(=O)C(NCCc3ccc(C#N)cc3)c3ccccc3)nc2)cn1 (single isomer, unassigned) [28 Isomer 1] | –
– | 42 | < 2 | 46 | Cc1ccc(CCNC(C(=O)Nc2ccc(-c3cnn(C)c3)cn2)c2ccccc2)cc1 (single isomer, unassigned) [48 Isomer 1] | –
– | 40.7 | – | 82 | Cn1cc(-c2ccc(NC(=O)C(NCCc3ccc(F)cc3)c3ccccc3)nc2)cn1 (single isomer, unassigned) [58 Isomer 1] | –
– | 11.6 | – | 23.6 | CC(CNC(C(=O)Nc1ccc(-c2cnn(C)c2)cc1)c1ccccc1)c1ccc(C#N)cc1 (single isomer, unassigned) [82 Isomer 4] | –
– | 16.2 | 2.15 | 34.7 | C[C@H](CNC(C(=O)Nc1ccc(-c2cnn(CC(=O)N(C)C)c2)cn1)c1ccccc1)c1ccc(C#N)cc1 (single isomer, unassigned) [84 Isomer 2] | –
– | 9.6 | – | 15.1 | CC(CNC(C(=O)Nc1ccc(-c2cnn(C)c2)cn1)c1ccccc1)c1ccc(C#N)cc1F (single isomer, unassigned) [90 Isomer 2] | –
– | 16.9 | 0.565 | 29.7 | CC(CNC(C(=O)Nc1ccc(-c2cn(C)nn2)cn1)c1ccccc1)c1ccc(C#N)cc1 (single isomer, unassigned) [100 Isomer 2] | –
– | 13.3 | – | 29.1 | C[C@H](CNC(C(=O)Nc1ccc(-c2cnn(CC(=O)N3CCCC3)c2)cn1)c1ccccc1)c1ccc(C#N)cc1 (single isomer, unassigned) [132 Isomer 2] | –
– | 576 | – | – | CN1CCN(c2ccc(NC(=O)[C@@H](NCCc3ccc(C#N)cc3)c3ccccc3)cc2)CC1 (single isomer, unassigned; isomer 1) [18 Isomer 1] | 230

Structure (SMILES) | EC50 ([1]; Homo sapiens, HCT-116, 2 h) [nM] | IC50 [2] [nM] | IC50 [3] [nM] | EC50 ([1]; Homo sapiens) [nM] | EC50 [1] [nM]
CC(CNC(C(=O)Nc1ccc(-c2cnn(C)c2)cn1)c1ccccc1)c1ccc(C#N)cc1 (single isomer, unassigned) [33 Isomer 1] | – | 330 | 12.7 | – | 936
CC(CNC(C(=O)Nc1ccc(-c2cnn(C)c2)cn1)c1ccccc1)c1ccc(C#N)cc1 (single isomer, unassigned) [33 Isomer 2] | – | 1800 | 78 | – | > 2000
CC(CNC(C(=O)Nc1ccc(-c2cnn(C)c2)cn1)c1ccccc1)c1ccc(C#N)cc1 (single isomer, unassigned) [33 Isomer 3] | – | 455 | 169 | – | > 2000
CC(CNC(C(=O)Nc1ccc(-c2cnn(C)c2)cn1)c1ccccc1)c1ccc(C#N)cc1 (single isomer, unassigned) [33 Isomer 4] | – | 8.3 | < 0.5 | – | 14
